From paper PMC12679539, “Synthesis and evaluation of nitroheterocyclic aromatic adamantane amides with trypanocidal activity. Part II” (RSC Medicinal Chemistry, 2025)

Assays:
[1] = tested on: L6 cells; assay: Cytotoxic activity against rat skeletal myoblast L6 cells (Alamar Blue); type: cell-based; details: 120 h, cytotoxicity, 5 days
Procedure: The cytotoxicity against mammalian cells was assessed using microtitre plates. Briefly, L6 cells (a rat skeletal muscle line) were seeded at 1 × 10^4 mL^−1 in 200 μL of RPMI-1640 growth medium (with 10% fetal calf serum) containing 7 different compound concentrations in a range previously established to encompass both the IC50 and IC90 values. The plates were incubated for 5 days at 37 °C and 20 μL Alamar Blue (Biosource Ltd, Wilton, North Yorkshire England.) was then added to each well. After an additional 8 hours incubation, the fluorescence was determined using a Gemini fluorescent plate reader (Molecular Devices). Inhibition of growth was calculated by comparison with control values and IC50 and IC90 values were determined in triplicate using linear regression analysis.

[2] = tested on: T. cruzi intracellular amastigotes; assay: microbe, parasite or virus in culture; type: cell-based, Trypanosoma cruzi CL Brener PpyRE9h:mScarlet; details: Trypanosoma cruzi, 120 h; in HeLa cells, 5 days
Procedure: Assays were performed in 96-well black (clear bottom) microtitre plates (Corning Inc.). HeLa ^† cells were seeded at 10^4 per well, incubated for 3 days, and then infected with T. cruzi CL Brener PpyRE9h : mScarlet[25] culture form trypomastigotes (1 : 1 multiplicity of infection). After 16 hours, extracellular parasites were removed by washing in growth medium (×3), test compounds were added, and the plates incubated for 5 days. Fluorescence intensities were then determined using a BMG FLUOstar Omega plate reader (ex 545 nm, em 590 nm), and the data analysed using GraphPad Prism 9.0 software. The values were expressed as IC50/90 ± SD and are the mean of triplicate experiments.

[3] = tested on: L. infantum promastigotes; assay: Activity against Leishmania infantum promastigotes (resazurin assay); type: cell-based, Leishmania infantum (MHOM/MA/67/ITMAP-263); details: for IC50: Leishmania infantum, promastigotes, 72 h, 95% CI in brackets
Procedure: Promastigotes from the L. infantum strain (MHOM/MA/67/ITMAP-263) were cultivated in 5 ml of Schneider's insect medium, which was supplemented with 10% heat-inactivated fetal bovine serum (FBS), 200 U ml^−1 of penicillin/streptomycin, 6 μg ml^−1 of phenol red, and 5 mM of HEPES. The cultures were maintained in an incubator at 27 °C and diluted to a concentration of 2 × 10^5 cells per ml every 5 days. For the assays the parasites used were equivalent to late/log with two or three days of culture.
The efficacy of the compounds against L. infantum promastigotes was evaluated using a resazurin-based assay. Parasites were added to 100 μl of serial dilutions of the compounds in supplemented complete medium at a cell density of 5 × 10^5 ml^−1. As a quality control, a dose–response curve with the antileishmanial drug miltefosine was included in all assays. The final volume of each assay was 200 μl per well, and each condition was tested in duplicate. After a 72-hour incubation under specific conditions for each parasite, 20 μl of a 0.5 mM resazurin solution was added, and the plates were incubated for an additional 4 hours under the same conditions. Fluorescence was measured at 544 nm for excitation and 590 nm for emission using a Synergy 2 Multi-Mode Reader (Biotek, Winooski, VT, USA). Results were expressed as the percentage of parasite growth inhibition compared to controls (untreated parasites) and represent the average of at least three independent experiments. The effect was evaluated by determining the IC50 value (the concentration required to inhibit 50% growth), calculated using non-linear regression curves via GraphPad Prism version 8.1.1 for Windows (GraphPad Software, San Diego, CA, USA).

SMILES	IC50 [1] [nM]	IC50 [2] [nM]	IC90 [2] [nM]	IC50 [3] [µM]	SI (promastigotes) CC50/Li IC50 ([3]; THP-1 CC50 / L. infantum promastigote IC50)
O=C(Cc1ccc(C23CC4CC(CC(C4)C2)C3)cc1)NCCn1cnc([N+](=O)[O-])n1 [6b, 2-[4-(1-Adamantyl)phenyl]-N-[2-(3-nitro-1H-1,2,4-triazol-1-yl)ethyl]acetamide]	30000 ± 2000	1830 ± 700	4290 ± 310	0.49	–
O=C(CCc1ccc(C23CC4CC(CC(C4)C2)C3)cc1)NCCn1cnc([N+](=O)[O-])n1 [6c, 3-[4-(1-Adamantyl)phenyl]-N-[2-(3-nitro-1H-1,2,4-triazol-1-yl)ethyl]propanamide]	23000 ± 2000	1580 ± 70	3230 ± 850	0.42	SI > 238
O=C(Cc1ccc(C23CC4CC(CC(C4)C2)C3)cc1)NCCCn1cnc([N+](=O)[O-])n1 [6e, 2-[4-(1-Adamantyl)phenyl]-N-[3-(3-nitro-1H-1,2,4-triazol-1-yl)propyl]acetamide]	23000 ± 3000	2480 ± 310	7080 ± 470	0.31	–
